Results reported in paper PMC6225126, “Inhibitory Effects of Bioassay-Guided Isolation of Anti-Glycation Components from Taraxacum coreanum and Simultaneous Quantification” (Molecules : A Journal of Synthetic Chemistry and Natural …, 2018).
Converted amounts (≈) assume the structure as drawn. Read-outs that look alike come from different tables or passages of the source.

Columns and labels:
[1] = test system: advanced glycation end-product (AGE) formation in BSA/MGO system; assay: Inhibition of AGE formation in BSA-MGO system (fluorescence); type: biochemical, bovine; settings: BSA 1 mg/mL, 7 mM MGO, 60 °C, 2 days, mean ± SD, n = 3; for IC50: isolated compounds
Experimental: The inhibitory effect on protein glycation induced by MGO (40% aqueous solution) and the main reactive intermediate compound formed in Maillard reaction were evaluated. All test samples were dissolved in 10% DMSO. […] This mixture was incubated at 60 °C for 2 days. […] We used AG as a positive control. Three replicate samples were run for each set. The inhibitory activity was calculated using the same equation applied in BSA-glucose assay.

[2] = test system: advanced glycation end-product (AGE) formation in BSA/glucose system; assay: Inhibition of AGE formation in BSA-glucose system (fluorescence); type: biochemical, bovine
Experimental: Inhibition of AGE formation in BSA-glucose system was determined using the spectrophotometric method described previously. All test samples were dissolved in 10% DMSO. […] This mixture was incubated at 60 °C for 2 days. […] We used AG as a positive control. Three replicate samples were run for each set. The inhibitory activity on AGE formation was calculated using the following formula: {(Ac − As)/Ac} × 100, where Ac is fluorescence of the control, and As is the fluorescence of the sample.

[3] = target: T1, α-glucosidase from Saccharomyces cerevisiae (Saccharomyces cerevisiae, UniProt P53341); assay: biochemical; type: biochemical
T1 construct: purchased Sigma-Aldrich Chemical Company (St. Louis, MO, USA)
T1 sequence (P53341 whole entry): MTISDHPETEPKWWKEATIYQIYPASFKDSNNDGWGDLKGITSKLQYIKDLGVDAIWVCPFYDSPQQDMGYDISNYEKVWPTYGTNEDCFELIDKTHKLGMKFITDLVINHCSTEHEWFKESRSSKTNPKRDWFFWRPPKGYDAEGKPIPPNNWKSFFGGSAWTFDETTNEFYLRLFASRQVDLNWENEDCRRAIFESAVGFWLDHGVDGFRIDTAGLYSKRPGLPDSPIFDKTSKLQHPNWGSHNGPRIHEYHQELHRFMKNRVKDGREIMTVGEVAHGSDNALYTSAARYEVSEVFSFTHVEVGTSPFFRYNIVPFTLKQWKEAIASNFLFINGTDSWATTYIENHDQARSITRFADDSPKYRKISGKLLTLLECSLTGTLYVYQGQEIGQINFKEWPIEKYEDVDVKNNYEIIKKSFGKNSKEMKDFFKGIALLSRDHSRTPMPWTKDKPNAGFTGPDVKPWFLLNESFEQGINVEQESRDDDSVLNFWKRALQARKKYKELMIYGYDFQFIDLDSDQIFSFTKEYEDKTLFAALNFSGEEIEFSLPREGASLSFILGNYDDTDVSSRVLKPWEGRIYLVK
Experimental: Methanol (MeOH), ethanol (EtOH), Hx, DCM, EA, BuOH, and distilled water were used for extraction, fractionation, and open column chromatography. Sephadex LH-20 (25–100 μm; Pharmacia, Stockolm, Sweden), MCI CHP 20P (Supelco, St. Louis, MO, USA), and ODS gel (400–500 mesh; Waters, Milford, MA, USA) were used for open column chromatography. Dimethyl sulfoxide-d6 (DMSO-d6) and methanol-d4 (CD3OD) were used as solvents for NMR analysis. Molecular weight was determined by using ultrahigh performance liquid chromatography and high-resolution mass spectrometry (UHPLC-HRMS) coupled with electrospray ionization hybrid linear trap-quadruple-Orbitrap MS (ESI/LTQ-Orbitrap) using an Ultimate 3000 RSLC (Thermo, Darmstadt, Germany). ^1H-nuclear magnetic resonance (NMR) spectra were recorded at 600 MHz and ^13C-NMR spectra were recorded at 150 MHz on a JEOL spectrometer. The chemical shifts are expressed in parts per million (ppm) on the δ scale and as coupling constants (J) in Hertz. […] A Waters Kromasil C18 (4.6 × 250 mm, 5 μm) column was used as the separation column. HPLC-grade solvents, such as MeOH and distilled water (H2O), were purchased from J. T. Baker® (Phillipsburg, PA, USA). HPLC-grade phosphoric acid was obtained from DEAJUNG Chemical (Siheung, Gyeonggi, Korea).
This assay was performed using a 96-well microplate reader and a spectrophotometer. […] A chromogenic substance was used for quantification purposes. After the addition of mixture solution to each well, 10 mM phosphate buffer (20 µL, pH 6.8) containing 0.2 U/mL α-glucosidase was added. This mixture was incubated at 37 °C for 15 min. The reaction was stopped by adding 80 µL of 0.2 mol/L sodium carbonate solution. […] Three replicate samples were run for each set. The inhibitory activity was calculated using the equation applied in BSA-glucose assay, but absorbance was measured instead of fluorescence.

[4] = isolated compounds, BSA 10 mg/mL, 0.4 M D-fructose and D-glucose, 60 °C, 2 days, mean ± SD, n = 3, read-out: IC50 BSA/Glucose (AGE formation)
[5] = isolated compounds, 2.5 mM p-NPG, pH 6.8, 37 °C, 15 min, mean ± SD, n = 3
[6] = isolated compounds, 2.5 mM p-NPG, pH 6.8, 37 °C, 15 min, mean ± SD, n = 3, read-out: IC50 α-Glucosidase
[7] = isolated compounds, read-out: IC50 α-glucosidase activity

IC50 [1] [µM] | IC50 [2, 4] [µM] | Compound | other results
66.1 ± 17.1 | 236 ± 9.11 | O=c1cc(-c2ccc(O)c(O)c2)oc2cc(O)cc(O)c12 [Compound 1, luteolin] | IC50 α-Glucosidase [3, 5]: no inhibitory activity
79.7 ± 23.4 | 324 ± 8.29 | O=C(O)/C=C/c1ccc(O)c(O)c1 [Compound 7, caffeic acid] | IC50 [3, 6]: 5.13 ± 0.804 mM
90.8 ± 21.7 | 423 ± 18 | O=c1cc(-c2ccc(OC3OC(CO)C(O)C(O)C3O)c(O)c2)oc2cc(O)cc(O)c12 (stereo not drawn) [Compound 3, luteolin-4′-glucoside] | IC50 [3, 7]: 0.598 ± 0.147 mM; IC50 ([2]; compound 3, unit as printed in running text b17, read-out: IC50 AGE formation in BSA-glucose system): 423 ± 18 µM
148 ± 36.3 | 238 ± 13.8 | O=c1cc(-c2cc(O)c(O)cc2OC2OCC(O)C(O)C2O)oc2cc(OC3OC(CO)C(O)C(O)C3O)cc(O)c12 (stereo not drawn) [Compound 6, isoetin-7-glucoside-2′-arabinoside] | IC50 α-Glucosidase [3, 5]: no inhibitory activity
130 ± 28.3 | 268 ± 3.41 | O=c1cc(-c2cc(O)c(O)cc2OC2OCC(O)C(O)C2O)oc2cc(OC3OC(CO)C(O)C(O)C3O)cc(O)c12 (stereo not drawn) [Compound 5, isoetin-7-glucoside-2′-xyloside] | IC50 α-Glucosidase [3, 5]: no inhibitory activity
136 ± 2.64 | 253 | CC1OC(OCC2OC(Oc3cc(O)c4c(=O)cc(-c5ccc(O)c(O)c5)oc4c3)C(O)C(O)C2O)C(O)C(O)C1O (stereo not drawn) [Compound 4, luteolin-7-rutinoside] | IC50 [3, 7]: 0.671 ± 0.0508 mM

Compound | IC50 [1] [µM] | IC50 [2, 4] [µM] | other results
N=C(N)NN [AMG, aminoguanidine, reference compound] | 295 ± 42.7 | 602 ± 50.4 | IC50 BSA/MGO (AGE formation) ([1]; extracts and fractions): 67.51 ± 5.27 µg/mL (≈ 911 µM); IC50 BSA/Glucose (AGE formation) ([2]; extracts and fractions, BSA 10 mg/mL, 0.4 M D-fructose and D-glucose, 60 °C, 2 days, mean ± SD, n = 3): 218.57 ± 24.38 µg/mL (≈ 2950 µM)
O=C(/C=C/c1ccc(O)c(O)c1)O[C@@H]1C[C@](O)(C(=O)O)C[C@@H](O)[C@H]1O [Compound 10, chlorogenic acid] | 138 ± 1.91 |  | 
chicoric acid [Compound 11] | 141 ± 8.76 | 64.7 ± 16.7 | 
1-caffeoylglycerol [Compound 8] | 152 ± 65.4 | 307 ± 10.2 | IC50 [3, 6]: 2.951 ± 0.00394 mM; IC50 [3, 7]: 2.951 ± 0.00394 mM
O=c1cc(-c2ccc(O)c(O)c2)oc2cc(OC3OC(CO)C(O)C(O)C3O)cc(O)c12 (stereo not drawn) [Compound 2, luteolin-7-glucoside] | 108 ± 8.14 | 123 ± 2.02 | IC50 [3]: 1.46 ± 0.162 mM
